14 molecules from patent US12421254B2, “KRAS modulators and uses thereof” (Quanta Therapeutics, Inc., priority 2023, dated 2025) can be followed below.

SMILES strings stand for the structures.

Assay [1] concerns the target GST-tagged KRAS-G12D (2-169) (Homo sapiens, UniProt P01116, G12D). Description: Nucleotide exchange assay (NEA), SOS-mediated, HTRF, KRAS G12D. Format: biochemical. Particulars: Table 4; IC50 extracted at 30 min; 20 nM SOScat; read-out: NEA G12D IC50. From the text:
(§1) This activity is tightly regulated by GTPase activating proteins (GAPs) and guanine nucleotide exchange factors (GEFs). GEFs, such as SOS1/2, activate Ras proteins by exchanging GDP for GTP, thus returning Ras to its active conformation (Simanshu, Nissley, & McCormick, 2017). […] Homogenous time resolved fluorescence (HTRF) was used to detect SOS-mediated binding of a fluorescent GTP analog, GTP-DY-647P1 (Jena Biosciences NU-820-647P1) to GST-tagged KRAS-G12D (2-169) or to GST-tagged KRAS-G12V (2-169, Reaction Biology, MSC-11-540).
(§2) GST-tagged KRAS-G12D (2-169) and anti-GST MAb Tb Cryptate Gold (CisBio 61GSTTLB) were diluted into assay buffer (20 mM HEPES, pH 7.3, 150 mM NaCl, 5 mM MgCl2, 0.05% BSA 0.0025% NP40, 1 mM DTT) to prepare a 2.5× donor solution. 5× compound was added to the protein mixture and incubated for 1 h at RT. 2.5× acceptor solution containing SOS1cat (564-1049, Reaction Biology MSC-11-502) and GTP-DY-647P1 were then added to the donor KRAS mixture such that the final concentration of the reaction contained 0.25 nM GST-tagged KRAS-G12D (2-169), 20 nM SOScat, and 150 nM GTP-DY-647P1. The reaction was monitored using at RT with the Envision multimode plate reader (Ex/Em 337/665, […]) up to 90 minutes at 5 minute intervals. To monitor KRAS-G12V SOS-mediated nucleotide exchange, 80 nM SOS was added to reaction instead of 20 nM. All other components were the same as previously described. Data was blanked to reactions without SOS1 and % inhibition was calculated such that DMSO only =0% and blank=100%. Curve fitting was done using a 4 parameter fit. Reported IC50 values were extracted at 30 min and 90 min for the KRAS-G12D and KRAS-G12V assays, respectively.
NEA KRAS G12D IC50 (uM) values of selected compounds are depicted in Table 2 with compounds having a value <0.01 uM as ++++; ≥0.01 uM to 0.1 uM as +++; ≥0.1 uM to 1 uM as ++; ≥1 uM to 20 uM as +; and ≥20 uM as NA.
On the technique in general: In TR-FRET formats the signal depends on donor and acceptor labels being close together.

Assay [2] addresses GST-tagged KRAS-G12V (2-169) (Homo sapiens, UniProt P01116, G12V). Description: Nucleotide exchange assay (NEA), SOS-mediated, HTRF, KRAS G12V. Format: biochemical. Particulars: Table 4; IC50 extracted at 90 min; 80 nM SOS.
Text: as §1, §2

Sequence of GST-tagged KRAS-G12V (2-169) (P01116 2-169 isoform P01116-2 G12V): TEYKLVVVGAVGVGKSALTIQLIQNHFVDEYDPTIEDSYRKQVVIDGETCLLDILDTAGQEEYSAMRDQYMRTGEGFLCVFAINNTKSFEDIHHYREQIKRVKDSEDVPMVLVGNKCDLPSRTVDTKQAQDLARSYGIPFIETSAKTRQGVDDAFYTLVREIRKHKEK
Sequence of GST-tagged KRAS-G12D (2-169) (P01116 2-169 isoform P01116-2 G12D): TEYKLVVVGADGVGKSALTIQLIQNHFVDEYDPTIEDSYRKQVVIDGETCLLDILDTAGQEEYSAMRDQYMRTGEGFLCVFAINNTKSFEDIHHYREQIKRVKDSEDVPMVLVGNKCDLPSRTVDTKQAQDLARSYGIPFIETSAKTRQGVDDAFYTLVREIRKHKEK

On to `N#Cc1c(N)sc2c1C1(CC2)CN(c2nc(OC[C@@]34CCCN3C[C@H](F)C4)nc(N3CCC[C@H](C#N)[C@@H]3CO)n2)C1` (racemic) [Compound 63, 2-amino-1′-[4-[rac-(2R,3S)-3-cyano-2-(hydroxymethyl)-1-piperidyl]-6-[[(2R,8S)-2-fluoro-1,2,3,5,6,7-hexahydropyrrolizin-8-yl]methoxy]-1,3,5-triazin-2-yl]spiro[3a,5-dihydrocyclopenta[b]thiophene-4,3′-azetidine]-3-carbonitrile], for which the IC50 in assay [1] and in assay [2] was 100 to 1000 nM in each case.

On to `N#Cc1c(N)sc2c1C1(CC2)CN(c2nc(OCC3(CN4CCOCC4)CC3)nc(OC3COCC3O)n2)C1` (racemic) [Compound 77, 2-amino-1′-[4-[rac-(3S,4S)-4-hydroxytetrahydrofuran-3-yl]oxy-6-[[1-(morpholinomethyl)cyclopropyl]methoxy]-1,3,5-triazin-2-yl]spiro[5,6-dihydrocyclopenta[b]thiophene-4,3′-azetidine]-3-carbonitrile; 2,2,2-trifluoroacetic acid], for which the 50% inhibitory concentration (IC50) in assay [1] was 1000 to 20000 nM; in assay [2], 100 to 1000 nM.

For the molecule `CN(c1nc(OC[C@@]23CCCN2C[C@H](F)C3)nc(N2CC3(CCc4sc(N)c(C#N)c43)C2)n1)[C@@H]1COC[C@H]1O` (racemic) [Compound 90, 2-amino-1′-[4-[[(2R,8S)-2-fluoro-1,2,3,5,6,7-hexahydropyrrolizin-8-yl]methoxy]-6-[[rac-(3R,4S)-4-hydroxytetrahydrofuran-3-yl]-methyl-amino]-1,3,5-triazin-2-yl]spiro[5,6-dihydrocyclopenta[b]thiophene-4,3′-azetidine]-3-carbonitrile], the concentration for half-maximal inhibition (IC50) in assay [1] and in assay [2] was 100 to 1000 nM each time.

Consider `CN(c1nc(OC[C@@]23CCCN2C[C@H](F)C3)nc(N2CC3(CCc4sc(N)c(C#N)c43)C2)n1)[C@@H]1CCC[C@@H]1O` (racemic) [Compound 92, 2-amino-1′-[4-[[(2R,8S)-2-fluoro-1,2,3,5,6,7-hexahydropyrrolizin-8-yl]methoxy]-6-[[rac-(1R,2S)-2-hydroxycyclopentyl]-methyl-amino]-1,3,5-triazin-2-yl]spiro[5,6-dihydrocyclopenta[b]thiophene-4,3′-azetidine]-3-carbonitrile], for which the IC50 in assay [1] and in assay [2] was 100 to 1000 nM each time.

For `CN(c1nc(OCC2(CN3CCOCC3)CC2)nc(N2CC3(CCc4sc(N)c(C#N)c43)C2)n1)[C@@H]1COC[C@@H]1O` (racemic) [Compound 94, 2-amino-1′-[4-[[rac-(3R,4R)-4-hydroxytetrahydrofuran-3-yl]-methyl-amino]-6-[[1-(morpholinomethyl)cyclopropyl]methoxy]-1,3,5-triazin-2-yl]spiro[5,6-dihydrocyclopenta[b]thiophene-4,3′-azetidine]-3-carbonitrile], the IC50 in assay [1] lay within 1000 to 20000 nM; in assay [2] it was 100 to 1000 nM.

On to `N#Cc1c(N)sc2c1C1(CC2)CN(c2nc(OC[C@@]34CCCN3C[C@H](F)C4)nc(N3CCCC(C#N)C(O)C3)n2)C1` (mixture of isomers) [Compound 96, 2-amino-1′-[4-(4-cyano-3-hydroxy-azepan-1-yl)-6-[[rac-(2R,8S)-2-fluoro-1,2,3,5,6,7-hexahydropyrrolizin-8-yl]methoxy]-1,3,5-triazin-2-yl]spiro[5,6-dihydrocyclopenta[b]thiophene-4,3′-azetidine]-3-carbonitrile], for which the IC50 was 100 to 1000 nM in assay [1] and 10 to 100 nM in assay [2].

`N#Cc1c(N)sc2c1C1(CC2)CN(c2nc(N[C@@H]3COC[C@@H]3O)nc(OC[C@@]34CCCN3C[C@H](F)C4)n2)C1` (racemic) [Compound 103, 2-amino-1′-[4-[[(2R,8S)-2-fluoro-1,2,3,5,6,7-hexahydropyrrolizin-8-yl]methoxy]-6-[[rac-(3R,4R)-4-hydroxytetrahydrofuran-3-yl]amino]-1,3,5-triazin-2-yl]spiro[5,6-dihydrocyclopenta[b]thiophene-4,3′-azetidine]-3-carbonitrile]: the IC50 in assay [1] was 1000 to 20000 nM; in assay [2] it was 100 to 1000 nM.

Turning to `CN(Cc1ccn[nH]1)c1nc(OC[C@@]23CCCN2C[C@H](F)C3)nc(N2CC3(CCc4sc(N)c(C#N)c43)C2)n1` (racemic) [Compound 105, 2-amino-1′-[4-[methyl(1H-pyrazol-5-ylmethyl)amino]-6-[[rac-(2R,8S)-2-fluoro-1,2,3,5,6,7-hexahydropyrrolizin-8-yl]methoxy]-1,3,5-triazin-2-yl]spiro[5,6-dihydrocyclopenta[b]thiophene-4,3′-azetidine]-3-carbonitrile], the IC50 fell in the range of 1000 to 20000 nM in assay [1] and 100 to 1000 nM in assay [2].

In the case of `C[C@@]1(O)CCCN(c2nc(OC[C@@]34CCCN3C[C@H](F)C4)nc(N3CC4(C3)c3c(sc(N)c3C#N)CS4(=O)=O)n2)C1` (racemic) [Compound 113, 2-amino-5,5-dioxo-1′-[4-[[rac-(2R,8S)-2-fluoro-1,2,3,5,6,7-hexahydropyrrolizin-8-yl]methoxy]-6-[rac-(3R)-3-hydroxy-3-methyl-1-piperidyl]-1,3,5-triazin-2-yl]spiro[6H-thieno[3,4-b]thiophene-4,3′-azetidine]-3-carbonitrile], the IC50 in assay [1] and in assay [2] was 100 to 1000 nM in each case.

Regarding `C[C@@]1(O)CCCN(c2nc(OC[C@]34CCCN3[C@H](COc3cc(C(F)(F)F)ncn3)CC4)nc(N3CC4(C3)SCc3sc(N)c(C#N)c34)n2)C1` (racemic) [Compound 252, 2-amino-1′-[4-[(3R)-3-hydroxy-3-methyl-1-piperidyl]-6-[[(3SR,8RS)-3-[[6-(trifluoromethyl)pyrimidin-4-yl]oxymethyl]-1,2,3,5,6,7-hexahydropyrrolizin-8-yl]methoxy]-1,3,5-triazin-2-yl]spiro[6H-thieno[3,4-b]thiophene-4,3′-azetidine]-3-carbonitrile], the IC50 in assay [1] and in assay [2] was below 10 nM each time.

Consider `N#Cc1c(N)sc2c1C1(CN(c3nc(OC[C@@]45CCCN4C[C@H](F)C5)nc(N4C5CCC4COC5)n3)C1)SC2` (racemic) [Compound 274, 2-amino-1′-[4-(3-oxa-8-azabicyclo[3.2.1]octan-8-yl)-6-[[rac-(2R,8S)-2-fluoro-1,2,3,5,6,7-hexahydropyrrolizin-8-yl]methoxy]-1,3,5-triazin-2-yl]spiro[6H-thieno[3,4-b]thiophene-4,3′-azetidine]-3-carbonitrile], for which the results for the IC50 in assay [1] and in assay [2] were 100 to 1000 nM and 10 to 100 nM, respectively.

With `CC(c1nccnc1N)N(C)c1nc(OC[C@@]23CCCN2C[C@H](F)C3)nc(N2CC3(CCc4sc(N)c(C#N)c43)C2)n1` (single isomer, unassigned) [Compound 116B, 2-amino-1′-[4-[[(1*)-1-(3-aminopyrazin-2-yl)ethyl]-methyl-amino]-6-[[(2R,8S)-2-fluoro-1,2,3,5,6,7-hexahydropyrrolizin-8-yl]methoxy]-1,3,5-triazin-2-yl]spiro[5,6-dihydrocyclopenta[b]thiophene-4,3′-azetidine]-3-carbonitrile], the IC50 in assay [1] was in the range of 100 to 1000 nM; in assay [2], 10 to 100 nM.

On to `C[C@H](c1cccnc1N)N(C)c1nc(OC[C@@]23CCCN2C[C@H](F)C3)nc(N2CCC3(CCCc4sc(N)c(C#N)c43)C2=O)n1` (single isomer, unassigned) [Compound 175A, (*)-2-amino-1′-(4-(((R)-1-(2-aminopyridin-3-yl)ethyl)(methyl)amino)-6-(((2R,7aS)-2-fluorotetrahydro-1H-pyrrolizin-7a(5H)-yl)methoxy)-1,3,5-triazin-2-yl)-2′-oxo-6,7-dihydro-5H-spiro[benzo[b]thiophene-4,3′-pyrrolidine]-3-carbonitrile], for which the IC50 in assay [1] is 10 to 100 nM; in assay [2], below 10 nM.

As for `C[C@H](c1cccnc1N)N(C)c1nc(OC[C@@]23CCCN2C[C@H](F)C3)nc(N2CCC3(CCCc4sc(N)c(C#N)c43)C2=O)n1` (single isomer, unassigned) [Compound 175B, (*)-2-amino-1′-(4-(((R)-1-(2-aminopyridin-3-yl)ethyl)(methyl)amino)-6-(((2R,7aS)-2-fluorotetrahydro-1H-pyrrolizin-7a(5H)-yl)methoxy)-1,3,5-triazin-2-yl)-2′-oxo-6,7-dihydro-5H-spiro[benzo[b]thiophene-4,3′-pyrrolidine]-3-carbonitrile], the IC50 in assay [1] is 100 to 1000 nM; in assay [2], below 10 nM.

For orientation: IC50 means the point on the concentration scale where inhibition reaches its midpoint.
